Article PMC9057277 (RSC Advances, 2020)
pIC50: −log10 of the molar value. Where two headings read alike, the source gives them in different places.

Legend:
purified ovine COX-1 = molecular target: T1, purified ovine COX-1 (Ovis aries, UniProt P05979); assay: COX Fluorescent Inhibitor Screening Assay Kit, COX-1
T1 sequence (P05979 25-600): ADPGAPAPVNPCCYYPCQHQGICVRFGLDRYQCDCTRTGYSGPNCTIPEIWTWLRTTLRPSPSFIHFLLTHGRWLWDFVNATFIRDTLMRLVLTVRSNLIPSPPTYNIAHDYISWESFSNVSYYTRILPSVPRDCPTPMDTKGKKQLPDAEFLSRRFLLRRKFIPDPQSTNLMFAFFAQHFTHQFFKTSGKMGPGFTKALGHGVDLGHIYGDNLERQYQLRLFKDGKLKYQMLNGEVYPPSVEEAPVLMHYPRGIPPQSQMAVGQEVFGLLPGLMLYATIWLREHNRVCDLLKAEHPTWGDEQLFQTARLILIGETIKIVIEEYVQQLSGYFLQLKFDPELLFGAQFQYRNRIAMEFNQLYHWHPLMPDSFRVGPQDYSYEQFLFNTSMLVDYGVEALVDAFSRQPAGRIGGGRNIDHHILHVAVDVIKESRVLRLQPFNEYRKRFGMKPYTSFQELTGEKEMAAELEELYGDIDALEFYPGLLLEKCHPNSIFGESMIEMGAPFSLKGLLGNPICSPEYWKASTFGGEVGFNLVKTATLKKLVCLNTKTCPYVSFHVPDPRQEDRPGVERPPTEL
Procedure: 7.4.1 COX inhibition assay
The COX inhibition potency against ovine COX-1 and human COX-2 was determined using the
fluorescence-based COX assay ’COX Fluorescent Inhibitor Screening Assay Kit‘ (catalog number
reported by us.7 In brief, as a measure of COX mediated conversion of arachidonic acid to PG H2 in the
presence of different inhibitor concentrations this assay utilizes the peroxidase component of COX and
analyzes the formation of fluorescent resorufin. All compounds were assayed in a concentration range
of 10 nM to 100 μM, and every inhibitor concentration was assayed in duplicate.
as internal control. IC50 values were estimated using a nonlinear logistic regression ﬁtting procedure
(sigmoidal dose−response model) with Prism Software.

recombinant human COX-2 = molecular target: T2, recombinant human COX-2 (Homo sapiens, UniProt P35354); assay: COX Fluorescent Inhibitor Screening Assay Kit, COX-2; type: biochemical; details: for Selectivity index: IC50 (COX-1)/IC50 (COX-2)
T2 construct: purchased Cayman Chemical, Ann Arbor, MI 700100
T2 sequence (P35354 18-604): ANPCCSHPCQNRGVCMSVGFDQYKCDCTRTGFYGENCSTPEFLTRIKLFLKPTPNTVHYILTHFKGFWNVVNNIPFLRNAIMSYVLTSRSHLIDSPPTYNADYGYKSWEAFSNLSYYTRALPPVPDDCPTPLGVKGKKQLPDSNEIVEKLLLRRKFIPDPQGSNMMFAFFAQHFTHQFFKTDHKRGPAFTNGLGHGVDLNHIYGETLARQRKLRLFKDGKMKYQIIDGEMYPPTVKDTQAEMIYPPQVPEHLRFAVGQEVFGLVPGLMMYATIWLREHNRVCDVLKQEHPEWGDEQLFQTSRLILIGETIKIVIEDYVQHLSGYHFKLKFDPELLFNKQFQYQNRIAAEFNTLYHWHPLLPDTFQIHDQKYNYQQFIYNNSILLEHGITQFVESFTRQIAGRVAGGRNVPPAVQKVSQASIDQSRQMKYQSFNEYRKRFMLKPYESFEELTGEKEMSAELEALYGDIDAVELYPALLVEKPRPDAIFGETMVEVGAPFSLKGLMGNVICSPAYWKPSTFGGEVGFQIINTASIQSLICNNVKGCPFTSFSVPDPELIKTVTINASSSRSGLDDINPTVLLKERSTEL

[1] = Ex vivo biodistribution in healthy rats; details: i.v., n = 8, mean ± SD; for Biodistribution BAT: brown adipose tissue; for Biodistribution WAT: white adipose tissue
log D7.4 by HPLC method = type: physicochemical; details: HPLC retention on ODP-50 4B column (Shodex Asahipak); pH 7.4, HPLC-based method
[2] = Metabolic stability in vivo: blood clearance, blood components, radiometabolites; set-up: species or system male Wistar rats; details: for half-life: male, Wistar, rat, arterial blood, iv, 70 MBq, i.v., arterial blood samples; for half-life / Intact compound in blood plasma: rats; for Intact compound in blood plasma: radio-HPLC

## CS(=O)(=O)c1ccc(-n2nc(CCF)cc2-c2ccccc2)cc1 [5c]
Purified ovine COX-1
  pIC50: < 4.00
Recombinant human COX-2
  pIC50: 5.30
  Selectivity index: >20

## [2H]C([2H])(F)c1cc(-c2ccc(C)cc2)n(-c2ccc(S(C)(=O)=O)cc2)n1 [[D2]5a]
Purified ovine COX-1
  pIC50: < 4.00
Recombinant human COX-2
  pIC50: 6.01
  Selectivity index: >103

## [2H]C([2H])([18F])c1cc(-c2ccc(C)cc2)n(-c2ccc(S(C)(=O)=O)cc2)n1 [[D2,^18F]5a]
[1]; 5 min p.i.
  Biodistribution BAT: 3.31 ± 0.56 SUV
  Biodistribution adrenals: 3.28 ± 0.52 SUV
  Biodistribution blood: 0.42 ± 0.04 SUV
  Biodistribution brain: 0.54 ± 0.12 SUV
  Biodistribution femur: 0.84 ± 0.09 SUV
  Biodistribution harderian gland: 1.94 ± 0.14 SUV
  Biodistribution heart: 0.76 ± 0.12 SUV
  Biodistribution intestine: 10.14 ± 1.96 %ID
  Biodistribution kidneys: 1.58 ± 0.24 SUV
  Biodistribution liver: 4.16 ± 0.29 SUV
  Biodistribution lung: 0.92 ± 0.14 SUV
  Biodistribution muscle: 0.52 ± 0.08 SUV
  Biodistribution pancreas: 1.37 ± 0.13 SUV
  Biodistribution skin & hair: 0.9 ± 0.15 SUV
  Biodistribution spleen: 0.56 ± 0.1 SUV
  Biodistribution stomach: 1.14 ± 0.57 %ID
  Biodistribution testes: 0.48 ± 0.04 SUV
  Biodistribution thymus: 0.95 ± 0.08 SUV
  Biodistribution thyroid gland: 0.95 ± 0.18 SUV
  Biodistribution urine (calc.): 0.15 ± 1.91 %ID
  Biodistribution WAT: 2.79 ± 1.06 SUV
[1]; 60 min p.i.
  Biodistribution BAT: 1.21 ± 0.11 SUV
  Biodistribution adrenals: 0.91 ± 0.15 SUV
  Biodistribution blood: 0.11 ± 0.01 SUV
  Biodistribution brain: 0.11 ± 0.02 SUV
  Biodistribution femur (femur uptake, 18F-defluorination): 2.6 ± 0.3 SUV
  Biodistribution harderian gland: 0.5 ± 0.08 SUV
  Biodistribution heart: 0.16 ± 0.03 SUV
  Biodistribution intestine: 33.02 ± 3.53 %ID
  Biodistribution kidneys: 0.47 ± 0.06 SUV
  Biodistribution liver: 0.92 ± 0.19 SUV
  Biodistribution lung: 0.21 ± 0.03 SUV
  Biodistribution muscle: 0.19 ± 0.07 SUV
  Biodistribution pancreas: 0.62 ± 0.37 SUV
  Biodistribution skin & hair: 0.25 ± 0.04 SUV
  Biodistribution spleen: 0.22 ± 0.12 SUV
  Biodistribution stomach: 1.19 ± 0.49 %ID
  Biodistribution testes: 0.21 ± 0.04 SUV
  Biodistribution thymus: 0.21 ± 0.04 SUV
  Biodistribution thyroid gland: 0.45 ± 0.06 SUV
  Biodistribution urine (calc.): 9.12 ± 3.68 %ID
  Biodistribution WAT: 2.4 ± 0.28 SUV
Log D7.4 by HPLC method
  chromatographic logD: 2.72
[2]; read-out: t1/2 distribution (blood clearance of intact compound)
  half-life: 1.3 min
[2]; read-out: t1/2 elimination (blood clearance of intact compound)
  half-life: 17 min
[2]; rat blood, 60 min p.i., + TCA
  Radioactivity distribution in blood components: erythrocytes: 18%
  Radioactivity distribution in blood components: plasma: 73%
  Radioactivity distribution in blood components: plasma supernatant: 39%
[2]; rat blood, 60 min p.i., + TCA precipitation
  Radioactivity distribution in blood components: plasma pellet (bound to plasma proteins): 29%
[2]; rat blood, 60 min p.i., - TCA
  Radioactivity distribution in blood components: erythrocytes: 16%
  Radioactivity distribution in blood components: plasma: 70%
  Radioactivity distribution in blood components: plasma pellet: 1%
  Radioactivity distribution in blood components: plasma supernatant: 73%
[2]; 20 min p.i.
  Intact compound in blood plasma: 54%
[2]; 60 min p.i.
  Intact compound in blood plasma: 52%

## Cc1ccc(-c2cc(CCF)n(-c3ccc(S(C)(=O)=O)cc3)n2)cc1 [5d]
Purified ovine COX-1
  pIC50: < 4.00
Recombinant human COX-2
  pIC50: < 4.00
